The values that follow come from paper PMC7900207, “Checkpoint inhibition through small molecule-induced internalization of programmed death-ligand 1” (Nature Communications, 2021).

One assay concerns the target T1, cell surface PD-L1 (Homo sapiens, UniProt Q9NZQ7).
T1 construct: gene CD274
As to the kind of experiment: cell-based.

The subject of another assay is T2, PD-1/PD-L1.
T2 construct: PD-L1 on aAPC/CHO-K1 cells, PD-1 on Jurkat effector cells (Promega)
Kind of assay: cells. More on the design: species or system Jurkat PD-1 effector cells with PD-L1 aAPC/CHO-K1; PD-1/PD-L1 blockade bioassay, NFAT luciferase reporter, Bio-Glo luminescence. Particulars: Homo sapiens, Jurkat; NFAT reporter bioassay. The method, then:
BioAssay is designed to measure luciferase activity showing the EC50 level of PD-1/PD-L1 blocking by small molecules targeting PD-L1 protein in the cell. PD-1 effector cells were incubated with PD-L1 aAPC/CHO-K1 cells in the absence or presence of small molecules or αPD-L1 blocking antibodies, as indicated titration according to the manufacturer’s instruction (Promega). Bio-Glo™ Reagent was added and luminescence quantified. Data were analyzed using GraphPad Prism. Small molecules were first screened in a cell-free in vitro homogeneous time-resolved fluorescence (HTRF) assay, utilizing αPD-L1 (MIH1) and αPD-1 (nivolumab) antibodies as positive controls. […] It has been reported that a small molecule can stabilize a dimer form of PD-L1 through interactions with antiparallel residues in the hydrophobic dimer interface. To test if compound A can induce intermolecular PD-L1 interactions in solution, we developed a homodimer HTRF assay. […] In this assay, preventing the PD-1/PD-L1 interaction results in a release of constitutive NFAT reporter suppression and increases luciferase activity (relative luminescence units). […] We determined if compound A cellular bioassay potency could translate into immunomodulatory effects on primary human immune cells. […]

Assay [1] has as its target T3, programmed death-ligand 1 (PD-L1, hPD-L1) (Homo sapiens, UniProt Q9NZQ7).
T3 construct: gene CD274; human PD-L1(18–134) with 6xHis carboxyl-terminal tag (crystal structure); recombinant Human PD-L1-His (HTRF)
Kind of assay: co-crystal structure at […] Å (PD-L1 homodimer); IC50 from PD-1/PD-L1 HTRF assay; PD-L1/PD-L1 dimerization HTRF. Type of assay: binding. Background: In TR-FRET formats the signal depends on donor and acceptor labels being close together.

pEC50, pIC50: −log10 of the molar value.

T1 sequence (Q9NZQ7 whole entry): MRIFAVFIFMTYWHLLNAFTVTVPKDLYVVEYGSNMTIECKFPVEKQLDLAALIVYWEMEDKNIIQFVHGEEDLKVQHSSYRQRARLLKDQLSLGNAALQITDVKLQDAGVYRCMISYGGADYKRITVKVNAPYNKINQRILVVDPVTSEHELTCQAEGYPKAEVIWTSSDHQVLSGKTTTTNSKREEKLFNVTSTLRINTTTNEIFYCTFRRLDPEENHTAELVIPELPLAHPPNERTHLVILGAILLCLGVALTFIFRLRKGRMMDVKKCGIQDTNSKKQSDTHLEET
T3 sequence (Q9NZQ7 18-134): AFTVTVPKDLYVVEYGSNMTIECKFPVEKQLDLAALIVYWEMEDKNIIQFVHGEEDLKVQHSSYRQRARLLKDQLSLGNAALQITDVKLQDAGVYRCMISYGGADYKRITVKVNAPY

The compound `Cc1c(NC(=O)c2ccc(CNCCO)cn2)cccc1-c1cccc(NC(=O)c2ccc(CNCCO)cn2)c1C` [ARB-272572] gave a pIC50 against cell surface PD-L1 of 8.68. The negative logarithm of the EC50 (pEC50) in the assay on PD-1/PD-L1 was 7.75.

The compound `Cc1c(NC(=O)c2ccc(CNCCO)cn2)cccc1-c1cccc(NC(=O)c2ccc(CNCCO)cn2)c1C` [compound A, ARB-272572] had a negative-log IC50 (pIC50) in assay [1] of 9.40.

What is called pIC50 is the IC50 on a negative log10 scale, so that one unit is a factor of ten. High values mean a low IC50, low ones a high IC50. In general, pEC50 refers to the negative decadic logarithm of the EC50, by convention in mol/L. A low value points to a high EC50.
